Source: PMC9827864, “In Situ Inhibitor Synthesis and Screening by Fluorescence Polarization: An Efficient Approach for Accelerating Drug Discovery” (Angewandte Chemie (International Ed. in English), 2022)

Assays:
[1] = target: T1, human prolyl hydroxylase 2 (PHD2) (Homo sapiens, UniProt Q9GZT9); assay: Fluorescence polarization (FP) competition assay of PHD2; conditions: purified compounds, 20 nM PHD2 (181-426), 30 nM probe, Cheng-Prusoff, mean±SD, read-out: Ki, binding affinity for PHD2
T1 construct: (181-426); made in house
Method: 2.1 Fluorescence polarization (FP) competition assay of PHD2 [4]
FP assays were performed using a SPARK Multi-Mode Microplate Reader (Tecan) with excitation and emission filters appropriate for the fluorophore used in the binding experiment. Fluorescence polarization experiments were performed in 384-well, flat bottom, black assay plates (#3575, Corning) in a final volume of 60 µL. The final assay buffer contained: 30 nM fluorescence Probe, 20 nM PHD2 (181-426), 10 mM HEPES, pH 7.4, 150 mM NaCl, 0.05% Tween-20, and at the 1% DMSO (except for DMSO tolerance experiments, in which different DMSO concentrations were used as indicated). All plates measured in fluorescence polarization assays were incubated for a minimum of 30 min at RT. Fluorescence polarization was measured from the top of the well with a Tecan SPARK plate reader with polarized filters and optical modules for fluorescein (λex = 485 nm ± 25 nm, λem = 535 nm ± 25 nm). The standard error of the mean (SEM) values, were calculated by dividing the sample standard deviation by the square root of the sample size and are recorded as ± values for IC 50. Dose-dependent experiments were performed in th e same manner using at least 10 concentrations of the test compounds in 3 -fold serial dilutions from 100 µM. For each assay, negative controls (equivalent to 0% displacement) contained the fluorescent ligand, PHD2 (181 -426), and 20 µL FP buffer; blank cont rols contained only the fluorescent ligand and 40 µL buffer.
The reaction mixtures were incubated at RT for 60 min, then total fluorescence and fluorescence polarization measurements wer e taken. The percentage inhibition was calculated using Equation 1, where mPfree is the signal for the free probe (blank control) and mPbound is the signal for the bound probe (negative control).
IC50s were determined for duplicate measurements by non-linear least-squares analysis using GraphPad Prism 8.0.
The Ki values of the inhibitors were calculated using the Cheng-Prusoff equation.[5] Cheng-Prusoff equation: Ki = IC50 / (1 + [L]/Kd)
The Kd value was determined using a constant concentration of probe and titrating with PHD2 protein at increasing concentrations. [L] represents the concentration of the […] used in the FP assay. […]

[2] = Metabolic stability in rat liver microsomes; type: in vitro ADME
Method: page 15: SUPPORTING INFORMATION 3. Molecular Modeling A structure of PHD2 in complex with Fe and a 2OG competing inhibitor (PDB ID: 4KBZ) was obtained from PDB website. The structure files of protein and compounds for docking were prepared using the Discovery Studio (DS) 2020 software. A water molecule HOH624, conserved in the active binding site of PHD2, was retained during the docking. Residues of PHD2 around the native ligand […] Subsequently, the ligand was removed; the Fe (II) was retained during the docking. Compounds were docked into the binding sites using GOLD 5.1. Docking procedures were performed using the default setting with 100 genetic algorithm (GA) runs of ligands. […] The samples were centrifuged at 5000 rpm f or 10 min; the supernatants were then analyzed by HPLC. […] Subsequently, these samples were analyzed for reticulocytes in the center for new drug safety evaluation and research of China Pharmaceutical University (ADVIA 2120 hematology system). 5.2 In vivo EPO increased assay Plasma EPO was evaluated using the erythropoietin quantikine ELISA kit for mice (MEP00B). […] Plasma was collected by centrifugation at 3000 rpm, these plasmas were detected by E PO ELISA. […] The hemoglobin of samples was analyzed in the center for new drug safety evaluation and research at China Pharmaceutical University (ADVIA 2120 hematology system). […]

[3] = Metabolic stability in human liver microsomes; type: in vitro ADME
[4] = test system: C57BL/6J mouse models of anemia induced by cisplatin; assay: Improvement of anemia induced by cisplatin administration; type: in vivo; conditions: cisplatin-induced anemia mice; for Improvement of anemia (%): po
Method: 5. Pharmacodynamic assay
The experimental mice (SPF, […], male) were obtained from SPF (Beijing) Biotechnology Co., Ltd (permit number: SCXK (Jing) 2019-0010). All animal related experiments were conducted under a China Pharmaceutical University (the certification of using the housing facility of laboratory animals: SYXK (Su) 2018 -0019) IACUC approved protocol in compliance with the guide for the care and use of laboratory animals (number: 202013705). […]
Representative compounds and Roxadustat were formulated in normal saline solution. […]
China Pharmaceutical University (ADVIA 2120 hematology system). […]
5.3 Improvement of anemia induced by cisplatin administration
C57BL/6J mice were treated with cisplatin ( po, 7 mg·kg-1) on days 0, 7, 14, and 28 of the experiment. On the 29th day, the animals were randomized into sham, control, and treated groups (n=5). […]
treatment anemia caused by cisplatin. The mice were treated with the compounds every alternate day for 30 days. the test sample is obtained via orbital venous plexus. The hemoglobin of samples was analyzed in the center for new drug safety evaluation and research at China Pharmaceutical University (ADVIA 2120 hematology system).

[5] = pH 7.4, read-out: t1/2 in liver microsomes

T1 sequence (Q9GZT9 181-426): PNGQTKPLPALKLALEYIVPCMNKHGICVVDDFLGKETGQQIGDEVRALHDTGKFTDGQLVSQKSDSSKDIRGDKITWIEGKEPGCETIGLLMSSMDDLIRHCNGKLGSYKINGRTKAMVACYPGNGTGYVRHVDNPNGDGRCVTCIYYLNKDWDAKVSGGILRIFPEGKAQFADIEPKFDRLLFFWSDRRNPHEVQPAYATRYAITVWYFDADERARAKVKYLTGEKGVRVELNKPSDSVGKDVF

O=C(N/N=C/c1cccc(O)c1Cl)c1cnc(-c2cccnn2)[nH]c1=O [compound 17]
Ki [1]: 27 ± 2 nM | compound present (remaining) in liver microsomes ([2]; after 50 min, 1 μM, 0.5 mg/mL): > 80% | half-life at 1 μM [2, 5]: > 1.67 h | compound present (remaining) in liver microsomes ([3]; after 50 min, 1 μM, 0.5 mg/mL): > 80% | half-life at 1 μM [3, 5]: > 1.67 h | hemoglobin (Hb) levels ([4]; po 5, 10, 20 mg kg−1, every alternate day for 30 days): increased in a dose‐dependent manner | Improvement of anemia (%) ([4]; 5 mg·kg^-1): 31.8% | Improvement of anemia (%) ([4]; 10 mg·kg^-1): 51.5% | Improvement of anemia (%) ([4]; 20 mg·kg^-1): 90.9%
